Measurements as given in US12138322B2, “Method of preventing the development of melanoma” (Vector Vitale IP LLC, priority 2019, dated 2024).
Where “and” joins values, the source holds several entries; their conditions need not be identical. Equal values may be shown once. Entries after “also recorded” stand apart in the source; their conditions may differ. Marks after values point to notes of the source that are not given here.

Tests used:
melanoma = assay: Simultaneous intratumoral and intravenous administration (data not shown); type: in vivo
Protocol: A possibility of simultaneous intratumoral and intravenous administration of the composition comprising 64Zne(Asp)2 was assessed in additional experiments (data not shown).

B16 melanoma = B16 melanoma tumor growth and survival in mice, intratumoral administration; type: in vivo, C57Bl/J6 mice; parameters: key to presence or absence of tumor, individual animals: Tumor−: absence of tumor growth; Tumor+: presence of tumor; key to tumor volume, individual animals: tumor volume in mm^3, ellipsoid V = 4/3×π×a×b×c from radii; conditions: for size of melanoma reduced compared to control: drug administered on the 11th day after inoculation; for tumor volume, individual animals: group 2, individual regimens
Protocol: B16 melanoma cells having the following characteristic were used in the experiment: • Origin: Mus musculus skin (C57BL/6 mouse) • Characteristics of tumor growth: short incubation period, rapid growth, absence of spontaneous metastases. • Tumor inoculability is 100%. The minimum dose of cells that causes tumor growth for this melanoma is only 100 to 1000 per subcutaneous injection in the mouse.
15 female C57Bl/J6 mice (5 mice per group) at the age of 10-12 weeks, weighing 18-22 g were used in the experiment.
B16 melanoma cells were cultured in vitro under standard conditions. For transplantation, tumor cells in the exponential phase were removed from the substrate with 0.02% Versene solution and the suspension cellularity and viability was evaluated in the presence of trypan blue in a hemocytometer and the suspension was adjusted to a concentration of 10^7 cells/ml by dilution with saline solution. Melanoma cells were injected intracutaneously (i.e.) in 0.05 ml of the suspension (0.5×10^6 cells/mouse) into the animal's back region. 24 hours before the injection of tumor cells, the wool cover on the back of each mouse was removed with depilation cream.
Grouping. The animals were divided into groups as follows: • Group No. 1: control group, mice injected i.e. with B16 melanoma cells; • Group No. 2: mice injected i.e. with B16 melanoma cells+intratumoral injections of ^64Zne(Asp)2 at day 5 after the tumor cells were inoculated. • Group No. 3: mice injected i.e. with B16 melanoma cells+intratumoral injections of ^64Zne(Asp)2 at day 11 after the tumor cells were inoculated
The composition to be administered was prepared immediately prior to its administration. ^64Zne(Asp)2 was dissolved in deuterium-depleted water with addition of 1% DMSO. Animals in group No. 2 were injected with the composition comprising ^64Zne(Asp)2 intratumorally and around the area of tumor growth at a dose of 200 μg/mouse in a volume of 20 μl/mouse after the tumor reached 0.5 cm in diameter (at day 5 after i.e. administration of the tumor cells).
Animals in group No. 3 were injected with the composition comprising ^64Zne(Asp)2 intratumorally and around the area of tumor growth at a dose of 300 μg/mouse in a volume of 30 μl/mouse at day 11 after i.e. administration of the tumor cells. […] 24 hours after the first injection and then a series of injections were given every other day. ^64Zne(Asp)2 was administered intratumorally every other day for 10 days, 5 times in total.
Regarding the 3rd group: group 3 mice received 300 mcg/mouse of ^64Zne in the form of ^4Zne aspartate on the 11th day and 200 mcg/mouse of ^4Zne aspartate on the 13th, 15th, 17th and 19th days after tumor cell injection.
The anti-tumor efficacy of ^64Zne(Asp)2 was evaluated on the basis of the growth dynamics of melanoma tumors estimated based on the changes in tumor volume according to generally accepted rules.
From the time the experimental tumors reached 0.3-0.5 cm in diameter and every 2-3 days thereafter, the size of each tumor node in experimental animals was measured in three orthogonal planes (width×length×height (W×L×H)) and the tumor volume was calculated by use of the following formula for the volume of ellipsoid: V= 4/3×πabc; where V is the tumor volume (mm^3); a, b, c is the rumor radius (mm): a is the radius along the x axis, b is the radius along the y axis, c is the radius along the z axis.

## N[C@@H](CC(=O)[O-])C(=O)[O-].[Zn+2] [^64Zne(Asp)2, Zinc L-aspartate]
melanoma
  suppression of the metastatic process (tumor size, surviving animals, number of metastases), words: confirmed the efficacy
B16 melanoma; 21st day
  size of melanoma reduced compared to control: 85%
B16 melanoma; 24th day
  size of melanoma reduced compared to control: 75.6%
B16 melanoma; 4 day after tumor cell inoculation (before 1st injection)
  tumor volume, individual animals: 14.1 and 33.5 and 24.4 (2×) and 25
B16 melanoma; 6 day
  tumor volume, individual animals: 14.1 (3×) and 33.5 and 65.4
B16 melanoma; 10 day
  tumor volume, individual animals: 24.4 (2×) and 14 (2×) and 51
B16 melanoma; 12 day
  tumor volume, individual animals: 24.4 and 14 (3×) and 116.4
B16 melanoma; 13 day, group 2
  local finding at tumor site, individual animal: Eschar
  presence or absence of tumor, individual animals: Tumor +/
B16 melanoma; 14 day
  tumor volume, individual animals: 14 (2×) and 4.2 and 38.4 and 9.2
B16 melanoma; 17 day
  tumor volume, individual animals: 4.2 (3×) and 65.4 and 14
B16 melanoma; 18 day, group 2
  presence or absence of tumor, individual animals: Tumor +/
B16 melanoma; 21 day
  tumor volume, individual animals: 0 (3×) and 179.6 and 33.5
B16 melanoma; 22 day, group 2
  presence or absence of tumor, individual animals: Tumor +/
B16 melanoma; 24 day
  tumor volume, individual animals: 25.4 and 0 (2×) and 282.7 and 33.5
B16 melanoma; 25 day, group 2
  Tumor necrosis, individual animal: necrosis
  presence or absence of tumor, individual animals: Tumor +/
B16 melanoma; 28 day, group 2
  death of individual animal: Died*
  presence or absence of tumor, individual animals: Tumor−; also recorded: Tumor +/
B16 melanoma; 28 day
  tumor volume, individual animals: 33.2 and 0 (2×) and 641 and 102.6
B16 melanoma; 36 day, group 2
  presence or absence of tumor, individual animals: Tumor +/; also recorded: Tumor−
B16 melanoma; 39 day, group 2
  Tumor necrosis, individual animal: necrosis
  presence or absence of tumor, individual animals: Tumor+; also recorded: Tumor−; also recorded: Tumor +/
B16 melanoma; 43 day, group 2
  death of individual animal: Died*
  presence or absence of tumor, individual animals: Tumor+; also recorded: Tumor−
B16 melanoma; 55 day, group 2
  presence or absence of tumor, individual animals: Tumor−
B16 melanoma; 58 day, group 2
  Tumor necrosis, individual animal: necrosis
  presence or absence of tumor, individual animals: Tumor +/; also recorded: Tumor−
B16 melanoma; 61 day, group 2
  death of individual animal: Died*
  presence or absence of tumor, individual animals: Tumor−
B16 melanoma; day 4 after inoculation (before first injection), group 2: intratumoral 200 μg/mouse at day 5
  Tumor volume (M ± m): 24.3 mm^3
B16 melanoma; day 4 after inoculation (before first injection), group 3: intratumoral 300 μg/mouse at day 11, then 200 μg/mouse
  Tumor volume (M ± m): 27 mm^3
B16 melanoma; day 4 after inoculation, group 2: intratumoral at day 5, 5 animals per group
  Number of alive mice: 100%
B16 melanoma; day 4 after inoculation, group 3: intratumoral at day 11, 5 animals per group
  Number of alive mice: 100%
B16 melanoma; day 6, group 2: intratumoral at day 5
  Number of alive mice: 100%
B16 melanoma; day 6, group 3: intratumoral at day 11
  Number of alive mice: 100%
B16 melanoma; day 6 after inoculation (before first injection), group 3: intratumoral 300 μg/mouse at day 11, then 200 μg/mouse
  Tumor volume (M ± m): 63 mm^3
B16 melanoma; day 6 after inoculation, group 2: intratumoral 200 μg/mouse at day 5
  Tumor volume (M ± m): 28.2 mm^3
B16 melanoma; day 9, group 2: intratumoral at day 5
  Number of alive mice: 100%
B16 melanoma; day 9, group 3: intratumoral at day 11
  Number of alive mice: 100%
B16 melanoma; day 9 after inoculation (before first injection), group 3: intratumoral 300 μg/mouse at day 11, then 200 μg/mouse
  Tumor volume (M ± m): 119 mm^3
B16 melanoma; day 9 after inoculation, group 2: intratumoral 200 μg/mouse at day 5
  Tumor volume (M ± m): 25.6 mm^3
B16 melanoma; day 12, group 2: intratumoral at day 5
  Number of alive mice: 100%
B16 melanoma; day 12, group 3: intratumoral at day 11
  Number of alive mice: 80^+ %
B16 melanoma; day 12 after inoculation, group 2: intratumoral 200 μg/mouse at day 5
  Tumor volume (M ± m): 36.6 mm^3
B16 melanoma; day 12 after inoculation, group 3: intratumoral 300 μg/mouse at day 11, then 200 μg/mouse
  Tumor volume (M ± m): 260 ± 20 mm^3
B16 melanoma; day 14, group 2: intratumoral at day 5
  Number of alive mice: 100%
B16 melanoma; day 14, group 3: intratumoral at day 11
  Number of alive mice: 80%
B16 melanoma; day 14 after inoculation, group 2: intratumoral 200 μg/mouse at day 5
  Tumor volume (M ± m): 16 ± 6^d mm^3
B16 melanoma; day 14 after inoculation, group 3: intratumoral 300 μg/mouse at day 11, then 200 μg/mouse
  Tumor volume (M ± m): 184 ± 51 mm^3
B16 melanoma; day 17, group 2: intratumoral at day 5
  Number of alive mice: 100%
B16 melanoma; day 17, group 3: intratumoral at day 11
  Number of alive mice: 80%
B16 melanoma; day 17 after inoculation, group 2: intratumoral 200 μg/mouse at day 5
  Tumor volume (M ± m): 18.4 mm^3
B16 melanoma; day 17 after inoculation, group 3: intratumoral 300 μg/mouse at day 11, then 200 μg/mouse
  Tumor volume (M ± m): 250 mm^3
B16 melanoma; day 21, group 2: intratumoral at day 5
  Number of alive mice: 100%
B16 melanoma; day 21, group 3: intratumoral at day 11
  Number of alive mice: 80%
B16 melanoma; day 21 after inoculation, group 2: intratumoral 200 μg/mouse at day 5
  Tumor volume (M ± m): 42.6 mm^3
B16 melanoma; day 21 after inoculation, group 3: intratumoral 300 μg/mouse at day 11, then 200 μg/mouse
  Tumor volume (M ± m): 375.4 mm^3
B16 melanoma; day 24, group 2: intratumoral at day 5
  Number of alive mice: 100%
B16 melanoma; day 24, group 3: intratumoral at day 11
  Number of alive mice: 60* %
B16 melanoma; day 24 after inoculation, group 2: intratumoral 200 μg/mouse at day 5
  Tumor volume (M ± m): 68.3 mm^3
B16 melanoma; day 24 after inoculation, group 3: intratumoral 300 μg/mouse at day 11, then 200 μg/mouse
  Tumor volume (M ± m): 881 mm^3
B16 melanoma; day 27, group 2: intratumoral at day 5
  Number of alive mice: 100%
B16 melanoma; day 27, group 3: intratumoral at day 11
  Number of alive mice: 60%
B16 melanoma; day 27 after inoculation, group 2: intratumoral 200 μg/mouse at day 5
  Tumor volume (M ± m): 155.4 mm^3
B16 melanoma; day 27 after inoculation, group 3: intratumoral 300 μg/mouse at day 11, then 200 μg/mouse
  Tumor volume (M ± m): 2313.5 mm^3
B16 melanoma; day 28, group 2: intratumoral at day 5
  Number of alive mice: 80* %
B16 melanoma; day 28, group 3: intratumoral at day 11
  Number of alive mice: 40%
B16 melanoma; day 31, group 2: intratumoral at day 5
  Number of alive mice: 80%
B16 melanoma; day 31, group 3: intratumoral at day 11
  Number of alive mice: 40%
B16 melanoma; group No. 2, after a single intratumoral injection at day 5
  animals in which growth of melanoma was suppressed by 100%: 2 out of 5
B16 melanoma; intratumoral on the 5th day after inoculation, day of reading not given
  tumor volume as % of the corresponding figure in the control group: 4%
